Patent US20250352520A1, “USE OF DEXPRAMIPEXOLE FOR THE TREATMENT OF EOSINOPHILIC COPD” (Areteia Therapeutics, Inc., priority 2024, published 2025)

Conditions: Week 4; <50% AEC reduction at Week 16

SMILES: CCCN[C@@H]1CCc2nc(N)sc2C1 [Dexpramipexole, (6R)-2-amino-4,5,6,7-tetrahydro-6-(propylamino)benzothiazole]
- Pre-BD FEF25-75 % change from baseline, Max: −9%
- Pre-BD FEF25-75 % change from baseline, Mean ± SD: −19.8 ± 9.58%
- Pre-BD FEF25-75 % change from baseline, Median: −19.3%
- Pre-BD FEF25-75 % change from baseline, Min: −32%
- Pre-BD FEF25-75 % change from baseline, Q1: −27%
- Pre-BD FEF25-75 % change from baseline, Q3: −13%
- Pre-BD FEF25-75 Observed, Max: 950 mL/s
- Pre-BD FEF25-75 Observed, Mean ± SD: 507.5 ± 333.30 mL/s
- Pre-BD FEF25-75 Observed, Median: 440.0 mL/s
- Pre-BD FEF25-75 Observed, Min: 200 mL/s
- Pre-BD FEF25-75 Observed, Q1: 255 mL/s
- Pre-BD FEF25-75 Observed, Q3: 760 mL/s
- Pre-BD FEF25-75 change from baseline, Max: -30 mL/s
- Pre-BD FEF25-75 change from baseline, Mean ± SD: -167.5 ± 191.03 mL/s
- Pre-BD FEF25-75 change from baseline, Median: -100.0 mL/s
- Pre-BD FEF25-75 change from baseline, Min: -440 mL/s
- Pre-BD FEF25-75 change from baseline, Q1: -300 mL/s
- Pre-BD FEF25-75 change from baseline, Q3: -35 mL/s
- Pre-BD FEV1 % change from baseline, Max: −1%
- Pre-BD FEV1 % change from baseline, Mean ± SD: −16.4 ± 15.81%
- Pre-BD FEV1 % change from baseline, Median: −13.3%
- Pre-BD FEV1 % change from baseline, Min: −37%
- Pre-BD FEV1 % change from baseline, Q1: −28%
- Pre-BD FEV1 % change from baseline, Q3: −4%
- Pre-BD FEV1 Observed, Max: 1680 mL
- Pre-BD FEV1 Observed, Mean ± SD: 1260.0 ± 511.53 mL
- Pre-BD FEV1 Observed, Median: 1420.0 mL
- Pre-BD FEV1 Observed, Min: 520 mL
- Pre-BD FEV1 Observed, Q1: 935 mL
- Pre-BD FEV1 Observed, Q3: 1585 mL
- Pre-BD FEV1 change from baseline, Max: -20 mL
- Pre-BD FEV1 change from baseline, Mean ± SD: -212.5 ± 173.47 mL
- Pre-BD FEV1 change from baseline, Median: -215.0 mL
- Pre-BD FEV1 change from baseline, Min: -400 mL
- Pre-BD FEV1 change from baseline, Q1: -355 mL
- Pre-BD FEV1 change from baseline, Q3: -70 mL
- Pre-BD FVC % change from baseline, Max: 0%
- Pre-BD FVC % change from baseline, Mean ± SD: −9.0 ± 13.97%
- Pre-BD FVC % change from baseline, Median: −2.9%
- Pre-BD FVC % change from baseline, Min: −30%
- Pre-BD FVC % change from baseline, Q1: −17%
- Pre-BD FVC % change from baseline, Q3: −1%
- Pre-BD FVC Observed, Max: 3480 mL
- Pre-BD FVC Observed, Mean ± SD: 2755.0 ± 729.41 mL
- Pre-BD FVC Observed, Median: 2875.0 mL
- Pre-BD FVC Observed, Min: 1790 mL
- Pre-BD FVC Observed, Q1: 2215 mL
- Pre-BD FVC Observed, Q3: 3295 mL
- Pre-BD FVC change from baseline, Max: -10 mL
- Pre-BD FVC change from baseline, Mean ± SD: -240.0 ± 350.90 mL
- Pre-BD FVC change from baseline, Median: -95.0 mL
- Pre-BD FVC change from baseline, Min: -760 mL
- Pre-BD FVC change from baseline, Q1: -450 mL
- Pre-BD FVC change from baseline, Q3: -30 mL
- Pre-BD Peak Flow % change from baseline, Max: 428%
- Pre-BD Peak Flow % change from baseline, Mean ± SD: 90.4 ± 224.72%
- Pre-BD Peak Flow % change from baseline, Median: −20.4%
- Pre-BD Peak Flow % change from baseline, Min: −25%
- Pre-BD Peak Flow % change from baseline, Q1: −24%
- Pre-BD Peak Flow % change from baseline, Q3: 205%
- Pre-BD Peak Flow Observed, Max: 211 L/min
- Pre-BD Peak Flow Observed, Mean ± SD: 167.5 ± 49.57 L/min
- Pre-BD Peak Flow Observed, Median: 180.5 L/min
- Pre-BD Peak Flow Observed, Min: 98 L/min
- Pre-BD Peak Flow Observed, Q1: 133 L/min
- Pre-BD Peak Flow Observed, Q3: 202 L/min
- Pre-BD Peak Flow change from baseline, Max: 171 L/min
- Pre-BD Peak Flow change from baseline, Mean ± SD: 11.0 ± 107.23 L/min
- Pre-BD Peak Flow change from baseline, Median: -35.5 L/min
- Pre-BD Peak Flow change from baseline, Min: -56 L/min
- Pre-BD Peak Flow change from baseline, Q1: -49 L/min
- Pre-BD Peak Flow change from baseline, Q3: 71 L/min
